# Experimental data from PMC3155477, “Cinnamon extract inhibits α-glucosidase activity and dampens postprandial glucose excursion in diabetic rats” (Nutrition & Metabolism, 2011).
# Tests used:
# [1] = test system: T1, rat-intestinal α-glucosidase (mammalian α-glucosidase); assay: Lineweaver-Burk plot, p-nitrophenol release; assay type: biochemical; conditions: no cinnamon extract; 0.5-4 mM PNPG, 37°C, 30 min
# T1 construct: gene Mgam; crude supernatant of sonicated rat-intestinal acetone powder (Sigma); native enzymes, not purified
# Excerpt: Lineweaver-Burk plot, p-nitrophenol release on rat-intestinal α-glucosidase (mammalian α-glucosidase)
# [2] = target: T1, rat-intestinal α-glucosidase (mammalian α-glucosidase); assay: p-nitrophenol release from PNPG; assay type: biochemical; conditions: PNPG substrate (20 μl of 1 mM added), 50 mM phosphate pH 6.8, 37°C, 5 min pre-incubation, 30 min
Km [1],IC50 [2],SMILES
850 µM,–,O=[N+]([O-])c1ccc(O[C@H]2O[C@H](CO)[C@@H](O)[C@H](O)[C@H]2O)cc1 [p-Nitrophenyl-α-D-glucopyranoside]
–,34.11 µg/mL,C[C@H]1O[C@H](O[C@H]2[C@H](O)[C@@H](O)[C@@H](O[C@H]3[C@H](O)[C@@H](O)C(O)O[C@@H]3CO)O[C@@H]2CO)[C@H](O)[C@@H](O)[C@@H]1N[C@H]1C=C(CO)[C@@H](O)[C@H](O)[C@H]1O (some centres unmarked) [Acarbose]
